PMC5618334, “Hydrocarbon constrained peptides – understanding preorganisation and binding affinity” (Chemical Science, 2016)
Where a SMILES comes first, the peptide text is derived from it. [ ]: non-standard residue; d: D form. The star is where a group is joined. FITC = O=C1OC2(c3ccc(O)cc3Oc3cc(O)ccc32)c2ccc(NC(=S)*)cc21; Nle = CCCC[C@H](N)C(=O)O; Ahx = NCCCCCC(=O)O

Experiments:
[1] = target: T1, Bcl-xL/BODIPY-BAK (Homo sapiens, UniProt Q07817, DEL26-81); test: Fluorescence anisotropy competition assay, inhibition of Bcl-xL/BODIPY-BAK interaction; type: binding
T1 construct: pET28a His-SUMO Bcl-xL (1-198, missing 26-81); His-SUMO (N, cleaved yes); made in house; host or cells: E. coli Rosetta 2
T1 sequence (Q07817 with tags, fused parts or gaps DEL26-81): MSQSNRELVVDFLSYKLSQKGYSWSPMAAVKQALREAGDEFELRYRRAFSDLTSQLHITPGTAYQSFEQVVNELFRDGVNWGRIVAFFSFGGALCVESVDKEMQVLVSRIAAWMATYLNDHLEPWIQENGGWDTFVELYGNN
Method: (§1) To profile the binding behaviour of the constrained peptides we tested them in both competition displacement assays and direct binding assays. […] Of particular interest was the potential for the introduction of a constraint to have differential effects on protein specificity/selectivity. […] We next tested the constrained peptides in inhibition assays (Fig. 3a and b and Table 2). […]
(§2) constructs were over-expressed in the E. coli strain Rosetta 2. Cells were resuspended in 50mM TRIS pH 8.0, 500mM NaCl, 15mM Imidazole and lysed by sonication. The clarified lysate was applied to a 5ml HisTrap column equilibrated with 50mM TRIS pH 8.0, 500mM NaCl, 15mM Imidazole. The HisTrap was then washed with 10 CV of 50mM TRIS pH 8.0, 500mM NaCl, 15mM Imidazole followed by 10 CV 50mM TRIS pH 8.0, 500mM NaCl, 25mM Imidazole. The fusion proteins were eluted in 50mM TRIS pH 8.0, 500mM NaCl, 300mM Imidazole. TheHis-SUMO tag was removed in overnight in dialysis into 50mM TRIS pH 8.0, 250mM NaCl in the presence of Smt3 protease, Ulp1, overnight at 4°C. Uncleaved material and His-SUMO were removed by reapplication of the sample to a HisTrap in 50mM TRIS pH 8.0, 250mM NaCl and the flow through containing Mcl- […]
(§3) The proteins were then filtered before further purification on a Superdex 75 (GE […]
(§4) proteins were concentrated and stored at -80°C.
(§5) The assays were performed as detailed in 10, 11.
(§6) The buffers used for fluorescence anisotropy were either phosphate buffer (40 mM sodium phosphate, 200 mM sodium chloride, 0.02 mg ml-1 bovine serum albumin, pH 7.50) or Tris buffer (50 mM Tris, 140 mM sodium chloride, pH 7.50). Phosphate buffer was used for all competition assays […]
(§7) Assays were run in 96 or 384 well Optiplates and were scanned using a Perkin Elmer EnVisionTM 2103 MultiLabel plate reader. Fluorescein labelled peptides used an excitation and emission wavelength of 480 (30) nm and 535 (40) nm respectively (dichroic mirror 505 nm) whilst BODIPY labelled peptides used an excitation and emission wavelength of 531 (25) nm and 595 (60) nm respectively (dichroic mirror 555 nm), […]
(§8) Plates were read after 1 h […]
(§9) respectively. Plates were read after 1 h. […]
(§10) Processing of fluorescence anisotropy data
(§11) Fluorescence anisotropy data was processed using Microsoft Excel to calculate intensity, anisotropy […]
(§12) b (λ(rmax − r) + r − rmin) r = anisotropy, I = total intensity, P = perpendicular intensity, S = parallel intensity, Lb = fraction ligand bound, λ = Ibound/Iunbound , G = 1= instrumental factor. […]
(§13) the calculation of IC50 and EC50) or to the Kd model for the extraction of Kd values:
(§14) Where for the logisitic model; y = r = anisotropy, xo = mid-point of the curve between the rmax and rmin […]
(§15) For the Kd model; y = Lb*[FL], K = Kd, [FL] = Concentration of fluorescent ligand.

[2] = target: T2, Bcl-xL (Homo sapiens, UniProt Q07817, DEL26-81); test: Fluorescence anisotropy direct binding assay with Bcl-xL; details: for EC50: Bcl-xL titrated into FITC-labelled peptide (25-100 nM), 50 mM tris, 140 mM NaCl, pH 7.50, logistic fit
T2 construct: pET28a His-SUMO Bcl-xL (1-198, missing 26-81); made in house; host or cells: E. coli Rosetta 2
T2 sequence (Q07817 with tags, fused parts or gaps DEL26-81): as above
Method: (§16) Direct titration experiments were also performed for FITC labelled BID peptides (Fig. 5). […]
as §2, §3, §4, §5, §6, §7, §8
(§17) respectively. Plates were read after 1 h.
(§18) For all variants of the labelled BID peptides (FITC-BID-WT,FITC-BID-MM, FITC-BID-DM and FITC-BID-Aib), the direct binding assays were performed in Tris Buffer in 384 well plates. In protein titrations, the protein concentration started from between 1-10 µM and was diluted over 24 points in a 3/4 dilution regime, with the concentration of the labelled peptide fixed at 25-100 nM. In the peptide titrations, the concentration of the labelled peptides started from 5 µM and were diluted in a 2/3 regime over 24 points, with the concentration of the protein fixed at 50 nM. Plates were read after 2 hours of incubation, and read again after 4 and 18 hours to ensure complete equilibration.
as §10, §11, §12, §13, §14, §15

[3] = target: T3, Mcl-1 (Homo sapiens, UniProt Q07820); test: Fluorescence anisotropy direct binding assay with Mcl-1
T3 construct: His-SUMO (N, cleaved yes); made in house; host or cells: E. coli Rosetta 2
T3 sequence (Q07820 172-327): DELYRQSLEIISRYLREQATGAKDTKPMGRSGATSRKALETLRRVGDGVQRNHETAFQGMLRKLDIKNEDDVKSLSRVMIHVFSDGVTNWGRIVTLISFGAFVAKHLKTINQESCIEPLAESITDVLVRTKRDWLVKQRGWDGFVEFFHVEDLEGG
Method: as §16, §2, §3, §4, §5, §6, §7, §8, §17, §18, §10, §11, §12, §13, §14, §15

[4] = target: T4, Mcl-1/FITC-NOXA-B (Homo sapiens, UniProt Q07820); test: Fluorescence anisotropy competition assay, inhibition of Mcl-1/FITC-NOXA-B interaction; type: binding; details: Table S1, unconstrained BH3 peptides; FA competition; Mcl-1 150 nM, FITC-NOXA-B 50 nM; phosphate buffer pH 7.50; read after 1 h
T4 construct: His-SUMO (N, cleaved yes); made in house; host or cells: E. coli Rosetta 2
T4 sequence (Q07820 172-327): as above
Method: as §1, §2, §3, §4, §5, §6, §7, §8, §9, §10, §11, §12, §13, §14, §15

IC50 [1] [nM] | EC50 ([2]; FA direct binding) [nM] | EC50 [3] [nM] | Compound | other results
1140 ± 50 |  |  | CCCC[C@H](NC(=O)C(C)(C)NC(=O)[C@H](CC(=O)O)NC(=O)CNC(=O)[C@@H](NC(=O)C(C)(C)NC(=O)[C@H](C)NC(=O)[C@H](CC(C)C)NC(=O)[C@H](Cc1c[nH]cn1)NC(=O)[C@H](CCCNC(=N)N)NC(=O)[C@H](C)NC(=O)[C@@H](NC(=O)[C@H](CC(N)=O)NC(=O)[C@H](CCCNC(=N)N)NC(=O)[C@@H](NC(=O)[C@@H](NC(=O)[C@H](CC(=O)O)NC(=O)[C@H](CCC(=O)O)NC(C)=O)[C@@H](C)CC)[C@@H](C)CC)[C@@H](C)CC)C(C)C)C(=O)N[C@@H](CC(=O)O)C(=O)N[C@@H](CCCNC(=N)N)C(=O)N[C@@H](CO)C(=O)N[C@H](C(=O)N[C@@H](Cc1c[nH]c2ccccc12)C(N)=O)[C@@H](C)CC [BID-AIB] | 
 |  |  | CC[C@H](C)[C@H](NC(=O)[C@H](CCCNC(=N)N)NC(=O)[C@H](CCCNC(=N)N)NC(=O)[C@H](CC(C)C)NC(=O)[C@H](CCC(N)=O)NC(=O)[C@H](C)NC(=O)[C@H](CS)NC(=O)[C@H](CCC(=O)O)NC(=O)[C@H](CC(=O)O)NC(=O)[C@H](CCCCN)NC(=O)[C@H](CC(C)C)NC(=O)[C@H](CC(=O)O)NC(=O)[C@H](C)NC(=O)[C@@H]1CCCN1C(=O)CCCCCNC(=S)Nc1ccc2c(c1)C(=O)OC21c2ccc(O)cc2Oc2cc(O)ccc21)C(=O)NCC(=O)N[C@@H](CC(=O)O)C(=O)N[C@@H](CCCCN)C(=O)N[C@H](C(=O)N[C@@H](CC(N)=O)C(=O)N[C@@H](CC(C)C)C(N)=O)C(C)C [FITC-NOXA-B] | Bcl-xL Kd ([2]; FA direct binding, labelled unconstrained BH3 peptide, Kd model (Table S1), phosphate buffer for BODIPY-BAK and FITC-NOXA-B, Tris buffer for FITC-BID): no binding; Kd [3]: 18.7 ± 0.9 nM
140 ± 15 |  |  | Ac-LWAAQRYGRELRRMSDEFEGSFDKL-NH2 [BAD, reference compound] | Mcl-1/ FITC-NOXA-B IC50 [4]: no inhibition
4000 ± 620 |  |  | CC[C@H](C)[C@H](NC(C)=O)C(=O)N[C@@H](Cc1c[nH]c2ccccc12)C(=O)N[C@H](C(=O)N[C@@H](C)C(=O)N[C@@H](CCC(N)=O)C(=O)N[C@@H](CCC(=O)O)C(=O)N[C@@H](CC(C)C)C(=O)N[C@@H](CCCNC(=N)N)C(=O)N[C@@]1(C)CCCC=CCCC[C@@](C)(C(=O)N[C@@H](Cc2ccccc2)C(=O)N[C@@H](CC(N)=O)C(=O)N[C@@H](C)C(=O)N[C@@H](Cc2ccc(O)cc2)C(=O)N[C@@H](Cc2ccc(O)cc2)C(=O)N[C@@H](C)C(=O)N[C@@H](CCCNC(=N)N)C(=O)N[C@@H](CCCNC(=N)N)C(N)=O)NC(=O)[C@H](CC(=O)O)NC(=O)CNC(=O)[C@H]([C@@H](C)CC)NC1=O)[C@@H](C)CC [BIM-DM] | 
 | 186 ± 24 | 153 ± 12 | CCCC[C@H](NC(=O)[C@@H]1CCC/C=C\CCC[C@H](NC(=O)[C@H](C)NC(=O)[C@H](CC(C)C)NC(=O)[C@H](Cc2c[nH]cn2)NC(=O)[C@H](CCCNC(=N)N)NC(=O)[C@H](C)NC(=O)[C@@H](NC(=O)[C@H](CC(N)=O)NC(=O)[C@H](CCCNC(=N)N)NC(=O)[C@@H](NC(=O)[C@@H](NC(=O)[C@H](CC(=O)O)NC(=O)[C@H](CCC(=O)O)NC(=O)CCNC(=S)Nc2ccc3c(c2)C(=O)OC32c3ccc(O)cc3Oc3cc(O)ccc32)[C@@H](C)CC)[C@@H](C)CC)[C@@H](C)CC)C(=O)N[C@@H](C(C)C)C(=O)NCC(=O)N[C@@H](CC(=O)O)C(=O)N1)C(=O)N[C@@H](CC(=O)O)C(=O)N[C@@H](CCCNC(=N)N)C(=O)N[C@@H](CO)C(=O)N[C@H](C(=O)N[C@@H](Cc1c[nH]c2ccccc12)C(N)=O)[C@@H](C)CC [FITC-BID-MM] | 
 | 79 ± 6 | 98 ± 8.9 | CCCC[C@H](NC(=O)[C@H](CO)NC(=O)[C@H](CC(=O)O)NC(=O)CNC(=O)[C@@H](NC(=O)[C@H](CCC(N)=O)NC(=O)[C@H](C)NC(=O)[C@H](CC(C)C)NC(=O)[C@H](Cc1c[nH]cn1)NC(=O)[C@H](CCCNC(=N)N)NC(=O)[C@H](C)NC(=O)[C@@H](NC(=O)[C@H](CC(N)=O)NC(=O)[C@H](CCCNC(=N)N)NC(=O)[C@@H](NC(=O)[C@@H](NC(=O)[C@H](CC(=O)O)NC(=O)[C@H](CCC(=O)O)NC(=O)CCCCCNC(=S)Nc1ccc2c(c1)C(=O)OC21c2ccc(O)cc2Oc2cc(O)ccc21)[C@@H](C)CC)[C@@H](C)CC)[C@@H](C)CC)C(C)C)C(=O)N[C@@H](CC(=O)O)C(=O)N[C@@H](CCCNC(=N)N)C(=O)N[C@@H](CO)C(=O)N[C@H](C(=O)N[C@@H](Cc1c[nH]c2ccccc12)C(N)=O)[C@@H](C)CC [FITC-BID-WT] ({FITC-Ahx}-EDIIRNIARHLAQVGDS[Nle]DRSIW-NH2) | Kd [2]: 21 ± 6.6 nM; Kd [3]: 50 ± 20 nM
 | 159 ± 13 | 129 ± 3 | CCCC[C@H](NC(=O)[C@]1(C)CCCC=CCCC[C@](C)(NC(=O)[C@H](C)NC(=O)[C@H](CC(C)C)NC(=O)[C@H](Cc2c[nH]cn2)NC(=O)[C@H](CCCNC(=N)N)NC(=O)[C@H](C)NC(=O)[C@@H](NC(=O)[C@H](CC(N)=O)NC(=O)[C@H](CCCNC(=N)N)NC(=O)[C@@H](NC(=O)[C@@H](NC(=O)[C@H](CC(=O)O)NC(=O)[C@H](CCC(=O)O)NC(=O)CCNC(=S)Nc2ccc3c(c2)C(=O)OC32c3ccc(O)cc3Oc3cc(O)ccc32)[C@@H](C)CC)[C@@H](C)CC)[C@@H](C)CC)C(=O)N[C@@H](C(C)C)C(=O)NCC(=O)N[C@@H](CC(=O)O)C(=O)N1)C(=O)N[C@@H](CC(=O)O)C(=O)N[C@@H](CCCNC(=N)N)C(=O)N[C@@H](CO)C(=O)N[C@H](C(=O)N[C@@H](Cc1c[nH]c2ccccc12)C(N)=O)[C@@H](C)CC [FITC-BID-DM] | 
